Measurements reported in US20050032844A1, “Methods for regulating nicotine metabolism” (Nicogen, Inc., priority 1996, published 2005).
Where “and” joins values, the source holds several entries; their conditions need not be identical. Identical values can stand only once. Entries after “also recorded” stand apart in the source; their conditions may differ. Counter-ions that a name gives are not always drawn. Like-named read-outs stand apart in the source and are kept apart here.

Columns and labels:
[1] = tested on: nicotine to cotinine metabolism by human liver microsomes; experiment: Chemical inhibition studies of nicotine to cotinine metabolism in 30 human liver microsomes and K27 microsomes; type: biochemical; conditions: for rank order of potency in inhibiting cotinine formation: 10 and 100 μM inhibitor, 50 μM nicotine, K27 liver microsomes; for mean inhibition of cotinine formation (mean±SD): 150 μM inhibitor (each), 100 μM (S)-nicotine, 30 human liver microsomes
Protocol: Chemical inhibition studies. […] To maximize inhibition, and reduce the loss due to its own metabolism, a concentration of 150 μM was chosen for each specific inhibitor. […] This concentration was chosen to maximize the contributions of each cytochrome P450 involved in nicotine metabolism, since each enzyme would likely have varying affinities for nicotine. […] High and low concentrations ([…]) of coumarin, 7methylcoumarin, 7-methoxycoumarin, and 7-ethoxycoumarin were incubated with 50 μM nicotine in K27 human liver microsomes.

CYP2A6 [2] = experiment: Antisense knockdown of CYP2A6 protein in h2A6 lymphoblast cells (Western blot); type: cell-based, human
Protocol: (§1) In order to test the feasiblility of using antisense oligodeoxynucleotides (ASO) for the reduction of the CYP2A6 enzyme we designed 4 ASO to four different parts of the human CYP2A6 gene and mRNA sequence. The ability to decrease CYP2A6 protein was tested in 2 different human cell lines. The first was a human lymphoblast cell line (h2A6) with a plasmid expression system containing the human CYP2A6 cDNA which is commercially available from Gentest Corp (Woburn, Mass.) and the second was a human hepatic cell line which expresses CYP2A6 (HepG2).
The h2A6 P450 cells were grown to 3×10^6 cells, the media removed and 5 μg ASO and 20 μg/ml lipofectin was added in 1 ml of 5% horse serum supplemented media. The cells were grown for 24 hr when a further 4 mls of complete media (10% horse serum) was added and the cells were grown for an additional 48 hr. Each cell sample was then washed 3 times with phosphate buffered saline, pelleted and frozen. […] These studies were then repeated using the addition of missense oligodeoxynucleotides (MSO) controls for this sequence. The MSO controls have 2 nucleotides switched at the 5 and 3 prime end.

CYP2A6 [3] = experiment: Antisense knockdown of CYP2A6 protein in HepG2 cells; type: cell-based, human; conditions: 2 μg ASO, relative to control untreated and MSO#23 treated cells
Protocol: as §1
The human hepatic HepG2 cells, which express CYP2A6, were grown and aliquoted at 1.0×10^5 cells and grown for 48 hrs in 2 mls complete media (10% fetal calf serum). After 48 hr, 2 μg ASO oligos and 15 μg/ml lipofectin was added in 1 ml 5% FCS media and grown for 24 hr. Cells then trypsinized and washed for Western blots or fixed with 4% paraformaldehyde for Immunocytochemistry.

CYP2D6 [4] = molecular target: T1, CYP2D6 (Homo sapiens, UniProt P10635); experiment: in vitro; conditions: pH 7.4
T1 sequence (P10635 whole entry): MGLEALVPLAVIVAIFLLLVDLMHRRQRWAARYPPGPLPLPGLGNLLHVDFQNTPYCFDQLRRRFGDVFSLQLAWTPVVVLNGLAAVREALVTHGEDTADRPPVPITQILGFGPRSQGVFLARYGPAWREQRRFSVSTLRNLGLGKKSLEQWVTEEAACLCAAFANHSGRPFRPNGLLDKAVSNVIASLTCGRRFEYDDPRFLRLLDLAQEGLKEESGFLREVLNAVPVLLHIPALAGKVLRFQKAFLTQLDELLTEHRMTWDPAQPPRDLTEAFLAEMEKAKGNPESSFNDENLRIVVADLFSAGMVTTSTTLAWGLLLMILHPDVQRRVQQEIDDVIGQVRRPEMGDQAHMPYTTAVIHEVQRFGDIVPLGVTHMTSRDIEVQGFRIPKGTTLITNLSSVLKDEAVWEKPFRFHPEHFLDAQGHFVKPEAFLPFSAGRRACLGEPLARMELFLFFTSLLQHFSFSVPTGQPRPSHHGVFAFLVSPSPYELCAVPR

[5] = in vivo; cited from earlier work
CYP2A6 [6] = molecular target: T2, CYP2A6 (Homo sapiens, UniProt P11509); experiment: biochemical
T2 sequence (P11509 1-494): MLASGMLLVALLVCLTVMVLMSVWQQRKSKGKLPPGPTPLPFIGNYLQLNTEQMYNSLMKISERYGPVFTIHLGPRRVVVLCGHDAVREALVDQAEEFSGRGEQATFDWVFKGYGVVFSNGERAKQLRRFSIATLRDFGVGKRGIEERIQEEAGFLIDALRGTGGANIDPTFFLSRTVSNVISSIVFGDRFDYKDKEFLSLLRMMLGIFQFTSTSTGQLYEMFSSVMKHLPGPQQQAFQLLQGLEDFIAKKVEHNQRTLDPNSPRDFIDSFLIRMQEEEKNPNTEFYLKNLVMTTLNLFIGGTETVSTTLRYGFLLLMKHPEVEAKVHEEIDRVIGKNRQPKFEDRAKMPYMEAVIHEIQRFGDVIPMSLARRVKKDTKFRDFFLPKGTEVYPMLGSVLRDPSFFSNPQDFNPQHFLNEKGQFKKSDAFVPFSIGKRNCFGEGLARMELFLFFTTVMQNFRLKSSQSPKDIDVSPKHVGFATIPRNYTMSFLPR
Protocol: Coumarin, 7-methylcoumarin, 7-methoxycoumarin and 7-ethoxycoumarin, at 10 and 100 μM concentrations, were incubated with 50 μM nicotine in K27 human liver microsomes. Furthermore, nicotine at 10, 30 and 50 μM concentrations was incubated using K27 liver microsomes in the presence of 0, 1, 2 and 5 μM concentrations of coumarin.
Microsomes were removed from −70° C. freezer and thawed on ice. […] The reaction was stopped by adding 100 μl to 20% Na2CO3 (pH 11.4).

in vitro = conditions: human, human liver microsomes
Protocol: The reaction was started by adding NADPH.
Ethyl acetate (3 mls) was added for extraction purposes.
Data Analysis. […] [formula]

[7] = smokers infused with 2 μg/kg/min×30 minutes
CYP2D6 [8] = molecular target: T1, CYP2D6; conditions: human liver microsomes, Wu, 1993; cited from earlier work
[9] = tested on: nicotine to cotinine metabolism by K20 human liver microsomes
[10] = tested on: nicotine to cotinine metabolism by K20 human liver microsomes; experiment: Quinidine and coumarin inhibition of cotinine formation in K20 human liver microsomes
[11] = in humans; cited from earlier work
CYP2A6 [12] = molecular target: T2, CYP2A6; experiment: Clinical study of methoxsalen pre-treatment before subcutaneous nicotine in dependent smokers; type: in vivo; parameters: 200 μl human liver microsomes (0.5 mg/ml); from tissue; host or cells: human liver microsomes (donor livers K12, K26, K27, K28)
Protocol: Frequent blood samples were drawn over 6 hours for measurement of nicotine and cotinine concentrations in plasma and measures of nicotine effects (e.g., heart rate; blood pressure; symptoms and urges and desires to smoke).
Each subject abstained from tobacco, food, beverages (other than water), and any inconsistently used drugs from midnight before each study day but continued to take any regularly scheduled drugs allowed by the protocol (e.g., oral contraceptives, daily vitamins). Before baseline measures were taken, a breath CO sample (Ecolyzer) was taken to assess compliance with the smoking abstinence (<10 ppm expected). The subsequent daily schedule is summarized here. All measurements are with respect to a time zero at 8 AM, at which time the first of three hourly nicotine injections were given. Nicotine was injected at 0, +1, and +2 hours.
Baseline physiologic and subjective measures were taken at −30 minutes, +30 minutes, and hourly thereafter until +5.5 hours, approximately coinciding with the expected peak plasma nicotine concentrations after each injection. Blood samples were taken at least hourly, more often around the expected peaks after the first and third injections, as described below.
Sterile nicotine bitartrate was obtained from Sigma Chemical. […] Nicotine injections of 31 μg/kg (expressed as the base) in sterile saline were used. […] The solutions were passed through a viral filter to remove any remote risk of viral or bacterial contamination.
Using an indwelling venous catheter, 8 ml blood samples were drawn every hour from +0 to +6 hours, and additional blood samples were taken at 15, 25, and 40 minutes after the first and third nicotine injections to characterize the kinetics around the expected time of the peak concentration, 25 minutes from injection. Samples that could not be immediately centrifuged for extraction of plasma were stored on ice for at most one hour before centrifugation.
Plasma (nicotine, cotinine) and urinary nicotine and cotinine were measured using an HPLC ion exchange column assay, using an electrochemical detector for nicotine and a UV detector for other compounds. The sensitivity of the nicotine assay was <1 ng/ml and that of the cotinine was <5 ng/ml. Conjugates in urine were determined after hydrolysis with beta-glucuronidase.

[13] = seven smokers, methoxsalen vs placebo

## Cc1ccc2ccc(=O)oc2c1 [7-methylcoumarin]
[1]
  rank order of potency in inhibiting cotinine formation: coumarin>7-methoxycoumarin>7-methylcoumarin>7-ethoxycoumarin

## ASO#23: antisense oligodeoxynucleotide, CYP2A6 mRNA 333-353, exon 2 3 prime end: CCATAGCCTTTGAAGACCCAG (DNA, backbone and methylation of C not given here)
CYP2A6 [2]; 5 μg ASO, Western blot
  CYP2A6 immunoreactivity, first test of 4 ASO: effective at removing the CYP2A6 immunoreactivity
CYP2A6 [2]; relative to untreated control cells and MSO#23-treated cells
  amount of CYP2A6, repeat with MSO controls: effectively deceased the amount of CYP2A6
CYP2A6 [3]
  CYP2A6 protein: profound decreases in CYP2A6 protein

## COc1ccc2c(c1)[C@]13CCCC[C@@H]1[C@H](C2)N(C)CC3 [dextromethorphan, Dextromethorphan hydrobromide]
CYP2D6 [4]
  Km at 30 min: 5.79 ± 2.01 µM

## Cc1ccccc1C(OCCN(C)C)c1ccccc1 (stereo not drawn) [orphenadrine]
[5]
  estimated half-life: about 14 h

## CCOc1ccc2ccc(=O)oc2c1 [7-ethoxycoumarin]
[1]
  rank order of potency in inhibiting cotinine formation: coumarin>7-methoxycoumarin>7-methylcoumarin>7-ethoxycoumarin

## COc1ccc2ccc(=O)oc2c1 [7-methoxycoumarin]
[1]
  rank order of potency in inhibiting cotinine formation: coumarin>7-methoxycoumarin>7-methylcoumarin>7-ethoxycoumarin

## O=C1C[C@@H](c2ccc(O)cc2)Oc2cc(O)cc(O)c21 [naringenin]
CYP2A6 [6]
  Ki: 4.3 µM

## O=c1ccc2ccccc2o1 [coumarin]
[1]
  mean inhibition of cotinine formation (mean±SD): over 80%
  rank order of potency in inhibiting cotinine formation: strongest inhibitory effect; also recorded: coumarin>7-methoxycoumarin>7-methylcoumarin>7-ethoxycoumarin
[1]; listed as Coumarin
  mean inhibition of cotinine formation (mean±SD): 84%±11% and 84±11%
[1]; Cornish-Bowden plots
  nature of inhibition of nicotine metabolism: competitive
[1]; K27 human liver microsomes, n=3, Dixon plot, read-out: apparent Ki, inhibition of nicotine metabolism
  Ki: ~2 µM
[1]; ex vivo in human liver microsomes, read-out: Ki, inhibition of NIC metabolism to COT
  Ki: 1.5 µM

## CN1CCC[C@H]1c1cccnc1 [nicotine, (S)-nicotine]
In vitro; pH 7.4, apparent Km, formation of cotinine (mean±SD), 30 human liver microsomes
  Km at 45 min: 66.7 ± 31.8 µM
In vitro; pH 7.4, mean Km, nicotine to cotinine (mean±SD), 30 human livers
  Km at 45 min: 66.6 ± 31.8 µM
[7]
  urine concentration of NIC: > 80 ng/mL
CYP2D6 [8]
  inhibition of dextromethorphan metabolism by CYP2D6: did not inhibit

## CCN(CC)C(=S)S [diethyldithiocarbamic acid]
CYP2A6 [6]
  Ki: 14.5 µM

## CO[C@H]1C[C@H](O[C@H]2[C@H](C)[C@@H](O[C@@H]3O[C@H](C)C[C@H](N(C)C)[C@H]3OC(C)=O)[C@@H](C)C[C@@]3(CO3)C(=O)[C@H](C)[C@@H](OC(C)=O)[C@@H](C)[C@@H](C)OC(=O)[C@@H]2C)O[C@@H](C)[C@@H]1OC(C)=O [troleandomycin]
[1]
  mean inhibition of cotinine formation (mean±SD): 3%

## C=C[C@H]1C[N@@]2CC[C@H]1C[C@@H]2[C@@H](O)c1ccnc2ccc(OC)cc12 [quinidine]
[9]
  inhibition: ~20% and 25%
[10]; 0.1 μM inhibitor
  inhibition of cotinine formation: no inhibition
[10]; 1.0 μM inhibitor
  inhibition of cotinine formation: no inhibition
[10]; 10 μM inhibitor
  inhibition of cotinine formation: 8%

## COc1c2occc2cc2ccc(=O)oc12 [methoxsalen, 9-Methoxy-7H-furol[3,2-g][1]benzopyran-7-one]
[11]
  half-life: about 1 hour
CYP2A6 [12]; plasma, seven subjects, FIG. 25
  change in nicotine concentrations: large changes
CYP2A6 [12]; [13]
  desire to smoke and urge to smoke: significant decreased desire to smoke and urge to smoke
  expectation that a cigarette would be pleasant: significant decrease
  subjective and physiologic effects accompanying increased plasma nicotine: significant increase in nausea, anxiousness, difficulty concentrating, systolic blood pressure
